Test results: the NIST ThermoML archive (doi:10.1016/j.jct.2013.10.010)
Numbers after ± are expanded uncertainties.

Legend:
[1] = φn = volume fraction of the nth substance listed; settings: 298.15 K, Wilhelmy Plate Method
[2] = 298.15 K, Wilhelmy Plate Method

| surface tension liquid-gas ([1]; φ1 = 0.1) [mN/m] | surface tension liquid-gas ([1]; φ1 = 0.2) [mN/m] | surface tension liquid-gas ([1]; φ1 = 0.3) [mN/m] | surface tension liquid-gas [2] [mN/m] | surface tension liquid-gas ([1]; φ2 = 0) [mN/m] | Compound |
| --- | --- | --- | --- | --- | --- |
| 68.3 ± 0.4 | 64.8 ± 0.4 | 61.5 ± 0.4 |  |  | OCCO [1,2-ethanediol] + O |
| 54 ± 0.4 | 52 ± 0.4 | 46.6 ± 0.4 |  |  | C1COCCO1 [1,4-dioxane] + O |
|  |  |  | 71.8 ± 0.4 |  | O [water] |
|  |  |  |  | 71.8 ± 0.4 | O [water] + C1COCCO1 |
|  |  |  |  | 71.8 ± 0.4 | O [water] + OCCO |
